Assay results reported in patent US20040048831A1, “Verifiable absorption drug delivery form based on cyclodextrins” (priority 2002, published 2004).

What was measured:
[1] = Release of drugs from paper disk dosage forms in vitro (continuous elution by water, spectrophotometry); type: physicochemical; settings: first milliliters of eluent
Protocol: To prepare the dosage form, cyclodextrin was dissolved in water (50% solutions for HPBCD, 20% for gamma-cyclodextrin and sulfopropyl beta-cyclodextrin), or aqueous ethanol for HPBCD (50% solution). This solution was saturated with drug by intensive stirring for two hours. The suspension was then filtered and then spotted on paper or filtration cloth and air dried.
Paper disks of 2 cm diameter and carrying drug: cyclodextrin inclusion complexes in the amounts specified in Table 1 below were continuously eluted by water and the amount of drug eluted was measured by spectrophotometry. For progesterone, a wavelength of 240 nm was used. Data had to be corrected since paper contains a minor component which elutes rapidly and absorbs at this wavelength. Prewashing of paper removes this complication. Amphotericin B content was analyzed using wavelength 410 nm and data previously published (M. Kajtar et al., Biopolymers, 28, 1585-1596, 1989).

[2] = as above; type: physicochemical; settings: eluted disks dried and eluted by methanol (50 ml) overnight
[3] = Release of cyclodextrin and drug from paper disk dosage forms in vivo (kept under the tongue, residue extracted); settings: for Progesterone left in disk, % of the originally present progesterone: progesterone:HPBCD paper disk, non-released disk = 100%
Protocol: Paper disks of 2 cm diameter containing only HPBCD were kept under the tongue for 3 to 4 minutes and dried after retrieval. The disks were then extracted by water (50 ml) overnight and soluble carbohydrates in the extracts measured using anthrone reagent (Methods in Carbohydrate Chemistry, Volume 1, page 523, wavelength used 620 nm). HPBCD is reactive toward this reagent. The control paper disk with HPBCD, but not released under the tongue, registered 100 units (arbitrary scale); the empty paper disk registered 1.8 units; disks loaded with HPBCD and released for 3 to 4 minutes under the tongue, 1.6 units.
Paper disks carrying progesterone:HPBCD combination, prepared as in Example 2 were kept under the tongue and, after retrieval, dried and extracted by water (50 ml) overnight. Progesterone in the extracts was measured by spectrophotometry using methods and precautions as in Example 2. When progesterone extracted from the original disks (i.e., not released under tongue) is taken as 100%, disks which were released for 5 minutes under the tongue yielded 3.8% of the originally present progesterone, and disks released for 10 minutes, 3.2%. Several minutes under the tongue thus releases nearly all drug into the oral cavity.

C[C@@H]1[C@H](O)[C@@H](C)/C=C/C=C/C=C/C=C/C=C/C=C/C=C/[C@H](O[C@@H]2O[C@H](C)[C@@H](O)[C@H](N)[C@@H]2O)C[C@@H]2O[C@](O)(C[C@@H](O)C[C@@H](O)[C@H](O)CC[C@@H](O)C[C@@H](O)CC(=O)O[C@H]1C)C[C@H](O)[C@H]2C(=O)O [Amphotericin B]
Completeness of release of drug by water from cyclodextrin paper disks [1]: only partial | Additional drug release from eluted, dried disks by methanol [2]: further drug was release

CC(O)COC[C@H]1O[C@@H]2O[C@H]3[C@H](O)[C@@H](O)[C@@H](O[C@H]4[C@H](O)[C@@H](O)[C@@H](O[C@H]5[C@H](O)[C@@H](O)[C@@H](O[C@H]6[C@H](O)[C@@H](O)[C@@H](O[C@H]7[C@H](O)[C@@H](O)[C@@H](O[C@H]8[C@H](O)[C@@H](O)[C@@H](O[C@H]1[C@H](O)[C@H]2O)O[C@@H]8COCC(C)O)O[C@@H]7COCC(C)O)O[C@@H]6COCC(C)O)O[C@@H]5COCC(C)O)O[C@@H]4COCC(C)O)O[C@@H]3COCC(C)O (stereo partly drawn) [HPBCD, hydroxypropyl beta-cyclodextrin]
Time for release of HPBCD into mouth ([3]; paper disk under the tongue): completed within a few minutes

CC(=O)[C@H]1CC[C@H]2[C@@H]3CCC4=CC(=O)CC[C@]4(C)[C@H]3CC[C@]12C [Progesterone]
Progesterone left in disk, % of the originally present progesterone ([3]; released 5 minutes under the tongue): 3.8% | Progesterone left in disk, % of the originally present progesterone ([3]; released 10 minutes under the tongue): 3.2% | Completeness of release of drug by water from cyclodextrin paper disks [1]: complete | Additional drug release from eluted, dried disks by methanol [2]: No additional release was observed
